Inconclusive results and toxic doses are left out.
System: CD2F1 mice, L1210 leukemia ip, survival T/C
Experiment: NCI In Vivo Anticancer Drug Screen. Data for tumor model L1210 Leukemia (intraperitoneal) in CD2F1 (CDF1) mice
Details: endpoint: mean survival time, higher = longer survival
Procedure: The antitumor activity of compounds was measured in mice bearing transplantable tumors. Survival or tumor size were measured and the results are expressed as the measurement made in the treated group (T) divided by the measurement made in the vehicle treated control group (C). The tumor model used in this assay is L1210 Leukemia (intraperitoneal) in CD2F1 (CDF1) mice

[1] = dose: 12.5 mg/kg/injection, schedule: Q01DX005 (ip), vehicle: other
[2] = dose: 25.0 mg/kg/injection, schedule: Q01DX005 (ip), vehicle: other
[3] = dose: 50.0 mg/kg/injection, schedule: Q01DX005 (ip), vehicle: other
[4] = dose: 100.0 mg/kg/injection, schedule: Q01DX005 (ip), vehicle: other
[5] = dose: 100.0 mg/kg/injection, schedule: Q01DX009 (ip), vehicle: saline with Tween-80
[6] = dose: 200.0 mg/kg/injection, schedule: Q01DX009 (ip), vehicle: saline with Tween-80
[7] = dose: 100.0 mg/kg/injection, schedule: Q01DX001 (ip), vehicle: saline
[8] = dose: 200.0 mg/kg/injection, schedule: Q01DX001 (ip), vehicle: saline
[9] = dose: 400.0 mg/kg/injection, schedule: Q01DX009 (ip), vehicle: saline with Tween-80
[10] = dose: 100.0 mg/kg/injection, schedule: Q04DX003 (ip), vehicle: saline with Tween-80
[11] = dose: 200.0 mg/kg/injection, schedule: Q04DX003 (ip), vehicle: saline with Tween-80
[12] = dose: 400.0 mg/kg/injection, schedule: Q04DX003 (ip), vehicle: saline with Tween-80
[13] = dose: 200.0 mg/kg/injection, schedule: Q04DX003 (ip), vehicle: other
[14] = dose: 400.0 mg/kg/injection, schedule: Q01DX001 (ip), vehicle: saline

SMILES: CSc1ncnc2c1c1c(N)ncnc1n2C1OC(CO)C(O)C1O (configuration not stated)
- T/C [1]: 107 % of control
- T/C [2]: 101 % of control
- T/C [3]: 95 % of control
- T/C [4]: 103 % of control
- T/C (dose: 200.0 mg/kg/injection, schedule: Q01DX005 (ip), vehicle: other): 109 % of control

SMILES: Cc1ncc([N+](=O)[O-])n1CCO
- T/C (dose: 37.5 mg/kg/injection, schedule: Q01DX009 (ip), vehicle: Klucel (hydroxypropylcellulose) (HPC)): 109 % of control
- T/C (dose: 37.5 mg/kg/injection, schedule: Q04DX003 (ip), vehicle: Klucel (hydroxypropylcellulose) (HPC)): 98 % of control
- T/C (dose: 75.0 mg/kg/injection, schedule: Q01DX009 (ip), vehicle: Klucel (hydroxypropylcellulose) (HPC)): 104 % of control
- T/C (dose: 75.0 mg/kg/injection, schedule: Q04DX003 (ip), vehicle: Klucel (hydroxypropylcellulose) (HPC)): 103 % of control
- T/C (dose: 150.0 mg/kg/injection, schedule: Q01DX009 (ip), vehicle: Klucel (hydroxypropylcellulose) (HPC)): 103 % of control
- T/C (dose: 150.0 mg/kg/injection, schedule: Q04DX003 (ip), vehicle: Klucel (hydroxypropylcellulose) (HPC)): 104 % of control
- T/C (dose: 300.0 mg/kg/injection, schedule: Q01DX009 (ip), vehicle: Klucel (hydroxypropylcellulose) (HPC)): 107 % of control
- T/C (dose: 300.0 mg/kg/injection, schedule: Q04DX003 (ip), vehicle: Klucel (hydroxypropylcellulose) (HPC)): 97 % of control
- T/C (dose: 600.0 mg/kg/injection, schedule: Q01DX009 (ip), vehicle: Klucel (hydroxypropylcellulose) (HPC)): 92 % of control
- T/C (dose: 600.0 mg/kg/injection, schedule: Q04DX003 (ip), vehicle: Klucel (hydroxypropylcellulose) (HPC)): 98 % of control

SMILES: ClC=P(c1ccccc1)(c1ccccc1)c1ccccc1
- T/C [5]: 96 % of control
- T/C [6]: 92 % of control

SMILES: CCOc1cccc(Cc2cn(Cc3cccc(NC(=O)c4ccc(S(=O)(=O)F)cc4)c3)c(=O)[nH]c2=O)c1
- T/C (dose: 75.0 mg/kg/injection, schedule: Q01DX001 (ip), vehicle: saline with Tween-80): 100 % of control
- T/C (dose: 150.0 mg/kg/injection, schedule: Q01DX001 (ip), vehicle: saline with Tween-80): 97 % of control

SMILES: Nc1cccc2ccc(O)cc12
- T/C (dose: 100.0 mg/kg/injection, schedule: Q01DX001 (ip), vehicle: Klucel (hydroxypropylcellulose) (HPC)): 96 % of control
- T/C (dose: 200.0 mg/kg/injection, schedule: Q01DX001 (ip), vehicle: Klucel (hydroxypropylcellulose) (HPC)): 86 % of control
- T/C (dose: 400.0 mg/kg/injection, schedule: Q01DX001 (ip), vehicle: Klucel (hydroxypropylcellulose) (HPC)): 104 % of control

SMILES: O=C1c2ccccc2C(=O)c2cc(N3C(=O)C=CC3=O)ccc21
- T/C [7]: 97 % of control
- T/C [8]: 96 % of control

SMILES: O=c1[nH]c(=S)n2ncnc2[nH]1
- T/C (dose: 100.0 mg/kg/injection, schedule: Q01DX009 (ip), vehicle: acetone): 97 % of control
- T/C (dose: 200.0 mg/kg/injection, schedule: Q01DX009 (ip), vehicle: acetone): 103 % of control
- T/C (dose: 400.0 mg/kg/injection, schedule: Q01DX009 (ip), vehicle: acetone): 95 % of control

SMILES: O=c1[nH]c(=O)n(C2SC(CO)C(O)C2O)cc1F (configuration not stated)
- T/C (dose: 178.0 mg/kg/injection, schedule: Q01DX009 (ip), vehicle: saline with Tween-80): 113 % of control
- T/C (dose: 267.0 mg/kg/injection, schedule: Q01DX009 (ip), vehicle: saline with Tween-80): 113 % of control
- T/C [9]: 119 % of control

SMILES: O=P(Oc1ccccc1)(c1ccccc1)c1ccccc1
- T/C [10]: 109 % of control
- T/C [11]: 95 % of control
- T/C [12]: 109 % of control

SMILES: CC(=O)N(C)N=Nc1ccc(C)cc1
- T/C (dose: 88.0 mg/kg/injection, schedule: Q04DX003 (ip), vehicle: other): 114 % of control
- T/C [13]: 121 % of control

SMILES: Cc1nnn2ccccc12
- T/C [7]: 95 % of control

SMILES: S=C(SN1CCCCC1)N1CCCCC1
- T/C (dose: 50.0 mg/kg/injection, schedule: Q04DX003 (ip), vehicle: other): 96 % of control
- T/C (dose: 100.0 mg/kg/injection, schedule: Q04DX003 (ip), vehicle: other): 96 % of control
- T/C [13]: 91 % of control

SMILES: Cc1ccc(NC(=O)N(CCCl)N=O)cc1C
- T/C (dose: 1.6 mg/kg/injection, schedule: Q01DX001 (ip), vehicle: other): 115 % of control
- T/C (dose: 5.7 mg/kg/injection, schedule: Q01DX001 (ip), vehicle: other): 188 % of control
- T/C (dose: 8.6 mg/kg/injection, schedule: Q01DX001 (ip), vehicle: other): 190 % of control
- T/C (dose: 13.0 mg/kg/injection, schedule: Q01DX001 (ip), vehicle: other): 204 % of control
- T/C (dose: 20.0 mg/kg/injection, schedule: Q01DX001 (ip), vehicle: other): 309 % of control
- T/C (dose: 29.0 mg/kg/injection, schedule: Q01DX001 (ip), vehicle: other): 191 % of control

SMILES: ClC(Cl)(Cl)c1nc2nccnc2[nH]1
- T/C (dose: 25.0 mg/kg/injection, schedule: Q01DX009 (ip), vehicle: saline sonified): 100 % of control
- T/C (dose: 50.0 mg/kg/injection, schedule: Q01DX009 (ip), vehicle: saline sonified): 104 % of control
- T/C (dose: 100.0 mg/kg/injection, schedule: Q01DX009 (ip), vehicle: saline sonified): 94 % of control

SMILES: O=C(NNC(=O)C(F)(F)F)c1ccccc1
- T/C (dose: 12.5 mg/kg/injection, schedule: Q01DX009 (ip), vehicle: other): 92 % of control
- T/C (dose: 25.0 mg/kg/injection, schedule: Q01DX009 (ip), vehicle: other): 94 % of control
- T/C (dose: 50.0 mg/kg/injection, schedule: Q01DX009 (ip), vehicle: other): 94 % of control
- T/C (dose: 100.0 mg/kg/injection, schedule: Q01DX009 (ip), vehicle: other): 118 % of control
- T/C (dose: 200.0 mg/kg/injection, schedule: Q01DX009 (ip), vehicle: other): 109 % of control

SMILES: OCC1OC(n2cnc3c(OC4CCCC4)ncnc32)C(O)C1O (configuration not stated)
- T/C [7]: 101 % of control
- T/C [8]: 100 % of control
- T/C [14]: 100 % of control

SMILES: O=C(Nc1ccc2c3c(ccc(C(=O)Nc4ccccc4)c13)CC2)c1ccccc1
- T/C [10]: 100 % of control
- T/C [11]: 100 % of control
- T/C [12]: 92 % of control

SMILES: COc1cc(C(=O)N(C(C)C)C2CCCCC2)cc(OC)c1OC
- T/C [10]: 104 % of control
- T/C [11]: 96 % of control

SMILES: Cc1c(C(=O)c2no[n+]([O-])c2C(=O)c2c(C)c([N+](=O)[O-])c(C)c([N+](=O)[O-])c2C)c(C)c([N+](=O)[O-])c(C)c1[N+](=O)[O-]
- T/C [5]: 87 % of control
- T/C [10]: 102 % of control
- T/C [6]: 96 % of control
- T/C [11]: 88 % of control
- T/C [9]: 88 % of control
- T/C [12]: 98 % of control

SMILES: Cc1ccc(OC(=O)Nc2cc([N+](=O)[O-])ccc2[N+](=O)[O-])cc1
- T/C (dose: 100.0 mg/kg/injection, schedule: Q04DX002 (ip), vehicle: saline with Tween-80): 100 % of control
- T/C (dose: 200.0 mg/kg/injection, schedule: Q04DX002 (ip), vehicle: saline with Tween-80): 100 % of control
- T/C (dose: 400.0 mg/kg/injection, schedule: Q04DX002 (ip), vehicle: saline with Tween-80): 92 % of control

SMILES: O=c1c2ccccc2on1-c1ncnc2nc[nH]c12
- T/C [1]: 105 % of control
- T/C [2]: 113 % of control
- T/C [3]: 111 % of control
- T/C [4]: 95 % of control

SMILES: Cc1csc(NC(=O)c2ccc(C(=O)Nc3nc(C)cs3)cc2)n1
- T/C [7]: 95 % of control
- T/C [8]: 95 % of control
- T/C [14]: 92 % of control

SMILES: COC(=O)c1[nH]cnc1/N=N\N(CCF)CCF
- T/C (dose: 2.1 mg/kg/injection, schedule: Q01DX009 (ip), vehicle: carboxymethylcellulose (CMC)): 109 % of control
- T/C (dose: 4.2 mg/kg/injection, schedule: Q01DX009 (ip), vehicle: carboxymethylcellulose (CMC)): 108 % of control

SMILES: Cc1cc(-c2nnc(-c3ccc(O)c(C)c3)nn2)ccc1O
- T/C [10]: 97 % of control
- T/C [11]: 89 % of control
- T/C [12]: 92 % of control

SMILES: O=C(CCl)OCC(Cl)Cl
- T/C [5]: 104 % of control
- T/C [6]: 112 % of control

SMILES: O=[N+]([O-])c1cc(S(=O)(=O)c2ccc(/C=C/c3ccc4c(c3)OCO4)c([N+](=O)[O-])c2)ccc1/C=C/c1ccc2c(c1)OCO2
- T/C [5]: 95 % of control
- T/C [6]: 88 % of control
- T/C [9]: 93 % of control
